Measured values as given in US12704458B2, “Critical angle reflection imaging for quantification of molecular interactions” (ARIZONA BOARD OF REGENTS ON BEHALF OF ARIZONA STATE …, priority 2020, dated 2026).

Tests used:
[1] = tested on: glycoproteins on fixed HeLa cells; experiment: SPR imaging of WGA binding to glycoproteins on fixed HeLa cells; details: gold surface, 50 μg/ml WGA, average of 10 cells
Procedure: SPR was first used to measure glycoprotein-WGA interaction on fixed HeLa cells (FIG. 7a). The cells were cultured on a gold surface and fixed right before the measurement (FIG. 7b). PBS buffer was flowed over the surface to establish a baseline and then introduced 50 μg/ml WGA (FIG. 7c). Binding of WGA to the glycoproteins increased the surface refractive index and caused the SPR signal to increase. After the association process, PBS buffer was flowed in again to induce dissociation of WGA from the cells. […] The WGA was labeled with Alexa Fluor 488, allowing verification of the binding using fluorescence. Three fluorescence images were captured at different phases of the binding process: at the baseline, after association, and after dissociation (FIG. 7d) respectively. The fluorescence change, although weak, confirmed that the SPR signal was due to the binding.
(§1) All the cell-related experiments including CAR, SPR, transmitted and fluorescence measurements (FIGS. 7-9) were performed on an objective-based SPR microscope setup, which consisted of an inverted microscope (Olympus IX-81) and a 60× (NA 1.49) oil-immersion objective. The light source for CAR and SPR imaging was a superluminescent light emitting diode (SLD-260-HP-TOW-PD-670, Superlum, Ireland) with 670 nm wavelength. The light source for transmitted and fluorescence imaging were the stocking halogen and mercury lamp of the microscope, respectively. A CMOS camera (ORCA-Flash 4.0, Hamamatsu) was used to record the images. A gravity-based drug perfusion system (SF-77B, Warner Instruments, Connecticut) was used for delivering analytes to the cells.
HeLa, SH-EP1, and SH-EP1_α4β2 cells were obtained from the American Type Culture Collection. […]
(§2) WinSpall 3.01 (Resonant Technologies GmbH, Germany) was used to calculate the reflectivity as a function of incident angle for CAR and SPR. The recorded CAR and SPR images were processed with ImageAnalysis (Biosensing Instrument Inc.) and Fiji. […]

[2] = tested on: glycoproteins on fixed HeLa cells; experiment: CAR imaging of WGA binding to glycoproteins on fixed HeLa cells; details: glass surface, ~61.0 degrees, 50 μg/ml WGA, average of the 9 cells
Procedure: Next, CAR imaging was used to repeat the glycoprotein-WGA binding measurement. The cells were cultured on a glass surface, and the bright field image and the corresponding CAR image of 9 cells are shown in FIG. 7e. The cells show dark patterns because they have higher refractive index than the background. θi was set at ~61.0 degrees with similar sensitivity to SPR. […] The minor disagreement in kinetic constants might reflect different surfaces and different light illumination depth between SPR and CAR. Fluorescence images captured during the CAR measurement confirmed the binding of WGA (FIG. 7g). […] For this reason, CAR is believed to be more compatible with fluorescence than SPR, and suitable for measuring biological samples that need simultaneous fluorescent labelling.
as §1
HeLa, SH-EP1, and SH-EP1_α4β2 cells were obtained from the American Type Culture Collection. The cells were cultured in Dulbecco's modified eagle medium (Lonza) with 10% fetal bovine serum (Invitrogen) and 1% penicillin and streptomycin in a humidified incubator at 37° C. with 5% CO2. […]
as §2

With “WGA: lectin that specifically binds N-acetylglucosamine structures in glycoproteins; with Alexa Fluor 488 tag, Thermo Fisher Scientific” as the substance, how does the Kd [1] read?
Its Kd is 53 ± 1 nM.

What about the ka [1] of the same substance?
The ka was “(2.5±0.1)×10^3 M^−1s^−1”.

What about the kd [1] of the same substance?
Its kd is “(1.3±0.1)×10^−4 s^−1”.

What about the Kd [2] of the same substance?
The Kd was 42 ± 1 nM.

What about the ka [2] of the same substance?
Its ka is “(6.0±0.1)×10^3 M^−1s^−1”.

What about the kd [2] of the same substance?
The kd was “(2.6±0.1)×10^−4 s^−1”.
